According to article PMC7529555 (Thoracic Cancer, 2020):
pIC50: −log10 of the molar value.

Legend:
[1] = test system: wild-type EGFR; details: cited from earlier work
[2] = test system: osimertinib metabolism in rat liver microsomes; assay: Inhibition by avitinib of osimertinib metabolism in rat liver microsomes; format: in vitro ADME; details: pH 7.4, probe osimertinib 0.01 μM
[3] = Pharmacokinetics of osimertinib in rats after pretreatment with avitinib; format: in vivo, Sprague-Dawley rats
[4] = test system: rat liver microsomes (RLM); assay: Metabolic stability of osimertinib in RLMs; format: in vitro ADME; details: osimertinib incubation with RLMs
[5] = Metabolic stability of osimertinib in RLMs; format: in vitro ADME, rat; details: rat, rat liver microsomes, pH 7.4
[6] = avitinib multiple doses group vs control
[7] = avitinib single dose group vs control

| pIC50 [2] | decrease of CLz/F vs control [3, 6] | increase of AUC(0-t) vs control [3, 6] | increase of AUC(0-∞) vs control [3, 6] | increase of Cmax vs control [3, 6] | increase of MRT(0-t) vs control [3, 6] | increase of Tmax vs control [3, 6] | decrease of CLz/F vs control [3, 7] | increase of AUC(0-t) vs control [3, 7] | increase of AUC(0-∞) vs control [3, 7] | increase of Cmax vs control [3, 7] | increase of MRT(0-t) vs control [3, 7] | increase of Tmax vs control [3, 7] | Slope (Ln remaining percent vs incubation time) [4] | half-life at 0.01 μM [5] | Compound | effect on wild-type EGFR [1] | inhibitory effect on the wild-type EGFR protein [1] |
| --- | --- | --- | --- | --- | --- | --- | --- | --- | --- | --- | --- | --- | --- | --- | --- | --- | --- |
| 4.56 | – | – | – | – | – | – | – | – | – | – | – | – | – | – | C=CC(=O)Nc1cccc(Oc2nc(Nc3ccc(N4CCN(C)CC4)c(F)c3)nc3[nH]ccc23)c1 [avitinib] | no effects | – |
| – | 52% | 1.91 fold | 1.92 fold | 1.66 fold | 1.39 fold | 1.74 fold | 44% | 2.35 fold | 2.38 fold | 1.72 fold | 1.31 fold | 1.48 fold | 0.02062 | 33.6 min | C=CC(=O)Nc1cc(Nc2nccc(-c3cn(C)c4ccccc34)n2)c(OC)cc1N(C)CCN(C)C [osimertinib] | – | weak inhibitory effect |
